Assay results as given in patent publication US4175125A, “Method for treating methicillin resistant staphylococcus aureus” (Eli Lilly and Company, priority 1978, dated 1979).
≈ marks a conversion by molar mass, not a printed value.

What was measured:
[1] = test system: Staphylococcus aureus cultures; test: Agar dilution susceptibility test, phenylthioacetyl cephalosporins vs methicillin resistant S. aureus (Example 9); format: cell-based; settings: Staphylococcus aureus, read-out: MIC
Text: This example compares the antibiotic activities of three known compounds, methicillin, cephalothin, and cephaloridine, with three compounds from the above examples, in terms of minimum inhibitory concentration (MIC) values in microgram/milliliter units against various isolates of Staphylococcus aureus cultures. The culture numbers and the procedures used to obtain the reported data are disclosed by W. E. Wick and D. A. Preston in their article "Heterogeneous Methicillin-Resistant Staphylococcus Aureus" which appeared in Progress in Antimicrobial And Anticancer Chemotherapy, Proceedings of the 6th International Congress of Chemotherapy, Volume, 1, U. of Tokyo Press, Tokyo, (1970). In these agardilution susceptibility tests, the inocula were diluted to 10^3 bacteria per spot. Cultures 3055 (benzylpenicillin sensitive) and H232 (benzylpenicillin-resistant) are controls. The remaining cultures are methicillin-resistant, and, except for 3136, are clinical isolates. Culture 3136 is a 4th transfer laboratory selected mutant.

[2] = test system: Staphylococcus aureus cultures; test: Broth dilution MIC in trypticase soy broth, low and high NaCl (Example 10); format: cell-based; settings: for MIC: Staphylococcus aureus, TSB, read-out: MIC
Procedure: This example compares the antibiotic activities of methicillin, cephalothin and cephaloridine with the compounds of Examples 1, 2 and 3, in broth dilution tests. The MIC values, in μg/ml., are against the same Staphylococcus aureus cultures described in Example 9, except that in this example the cultures were grown in trypticase soy broth (TSB). Growing the cultures in two broth cultures, one having a low (0.5 percent) sodium chloride content and one having a high (5.0 percent) sodium chloride content is said to assist in identifying the methicillin-resistant cultures from those which are not methicillin-resistant. […] See Chabbert, Y. A., 1967 Postgrad. Med. J., 43 (suppl); 40-46. One expects that similar changes in MIC values for this type of culture to other β-lactam antibiotics, e.g., various penicillins and cephalosporins, to have similar implications. […] That is, methicillin-resistant S.aureus cultures are susceptible to the cephalosporin antibiotics used in this invention.

[3] = culture 3130, table part marked b
[4] = culture 3130, table part marked c
[5] = culture 3131, table part marked b
[6] = culture 3131, table part marked c
[7] = culture 3134, table part marked b
[8] = culture 3134, table part marked c
[9] = culture 3135, table part marked b
[10] = culture 3135, table part marked c
[11] = culture 3136, table part marked b
[12] = culture 3136, table part marked c
[13] = culture 3137, table part marked b
[14] = culture 3137, table part marked c
[15] = culture 3138, table part marked b
[16] = culture 3138, table part marked c
[17] = culture 3139, table part marked b
[18] = culture 3139, table part marked c
[19] = culture (Seattle) 966, table part marked b
[20] = culture (Seattle) 966, table part marked c
[21] = culture S61, table part marked b
[22] = culture S61, table part marked c

Compound: COc1cccc(OC)c1C(=O)N[C@@H]1C(=O)N2[C@@H]1SC(C)(C)[C@@H]2C(=O)O [Methicillin, methicillin]
- MIC ([1]; culture 3055 (control, benzylpenicillin sensitive), table part marked b): 1 µg/mL (≈ 2.63 µM)
- MIC ([1]; culture 3055 (control, benzylpenicillin sensitive), table part marked c): 2 µg/mL (≈ 5.26 µM)
- MIC [1, 3]: 8 µg/mL (≈ 21 µM)
- MIC [1, 4]: 128 µg/mL (≈ 336 µM)
- MIC [1, 5]: 8 µg/mL (≈ 21 µM)
- MIC [1, 6]: 128 µg/mL (≈ 336 µM)
- MIC ([1]; culture 3132, table part marked b): 8 µg/mL (≈ 21 µM)
- MIC ([1]; culture 3132, table part marked c): 32 µg/mL (≈ 84.1 µM)
- MIC ([1]; culture 3133, table part marked b): 8 µg/mL (≈ 21 µM)
- MIC ([1]; culture 3133, table part marked c): 128 µg/mL (≈ 336 µM)
- MIC [1, 7]: 16 µg/mL (≈ 42.1 µM)
- MIC [1, 8]: 64 µg/mL (≈ 168 µM)
- MIC [1, 9]: 8 µg/mL (≈ 21 µM)
- MIC [1, 10]: 64 µg/mL (≈ 168 µM)
- MIC [1, 11]: 8 µg/mL (≈ 21 µM)
- MIC [1, 12]: 64 µg/mL (≈ 168 µM)
- MIC [1, 13]: > 128 µg/mL
- MIC [1, 14]: > 128 µg/mL
- MIC [1, 15]: 16 µg/mL (≈ 42.1 µM)
- MIC [1, 16]: > 128 µg/mL
- MIC [1, 17]: 8 µg/mL (≈ 21 µM)
- MIC [1, 18]: > 128 µg/mL
- MIC [1, 19]: 8 µg/mL (≈ 21 µM)
- MIC [1, 20]: 64 µg/mL (≈ 168 µM)
- MIC ([1]; culture H232 (control, benzylpenicillin-resistant), table part marked b): 2 µg/mL (≈ 5.26 µM)
- MIC ([1]; culture H232 (control, benzylpenicillin-resistant), table part marked c): 2 µg/mL (≈ 5.26 µM)
- MIC ([1]; culture Kavarmark 1138501, table part marked b): 8 µg/mL (≈ 21 µM)
- MIC ([1]; culture Kavarmark 1138501, table part marked c): 128 µg/mL (≈ 336 µM)
- MIC [1, 21]: 8 µg/mL (≈ 21 µM)
- MIC [1, 22]: 128 µg/mL (≈ 336 µM)
- difference in MIC values in low versus high salt TSB cultures ([2]; 0.5 percent vs 5.0 percent NaCl, methicillin-resistant S. aureus): wide disparity in MIC values
- MIC ([2]; culture 3055 (control), table part marked b): 2 µg/mL (≈ 5.26 µM)
- MIC ([2]; culture 3055 (control), table part marked c): 2 µg/mL (≈ 5.26 µM)
- MIC [2, 3]: 16 µg/mL (≈ 42.1 µM)
- MIC [2, 4]: 64 µg/mL (≈ 168 µM)
- MIC [2, 5]: 16 µg/mL (≈ 42.1 µM)
- MIC [2, 6]: 128 µg/mL (≈ 336 µM)
- MIC ([2]; culture 3132 (first column so headed), table part marked b): 32 µg/mL (≈ 84.1 µM)
- MIC ([2]; culture 3132 (first column so headed), table part marked c): 64 µg/mL (≈ 168 µM)
- MIC ([2]; culture 3132 (second column so headed), table part marked b): 8 µg/mL (≈ 21 µM)
- MIC ([2]; culture 3132 (second column so headed), table part marked c): 128 µg/mL (≈ 336 µM)
- MIC [2, 7]: 32 µg/mL (≈ 84.1 µM)
- MIC [2, 8]: 64 µg/mL (≈ 168 µM)
- MIC [2, 9]: 32 µg/mL (≈ 84.1 µM)
- MIC [2, 10]: 64 µg/mL (≈ 168 µM)
- MIC [2, 11]: 32 µg/mL (≈ 84.1 µM)
- MIC [2, 12]: 128 µg/mL (≈ 336 µM)
- MIC [2, 13]: > 128 µg/mL
- MIC [2, 14]: > 128 µg/mL
- MIC [2, 15]: 128 µg/mL (≈ 336 µM)
- MIC [2, 16]: 128 µg/mL (≈ 336 µM)
- MIC [2, 17]: 16 µg/mL (≈ 42.1 µM)
- MIC [2, 18]: > 128 µg/mL
- MIC [2, 19]: 8 µg/mL (≈ 21 µM)
- MIC [2, 20]: 64 µg/mL (≈ 168 µM)
- MIC ([2]; culture H232 (control), table part marked b): 4 µg/mL (≈ 10.5 µM)
- MIC ([2]; culture H232 (control), table part marked c): 4 µg/mL (≈ 10.5 µM)
- MIC ([2]; culture Kavarnick 1138501, table part marked b): 32 µg/mL (≈ 84.1 µM)
- MIC ([2]; culture Kavarnick 1138501, table part marked c): 128 µg/mL (≈ 336 µM)
- MIC [2, 21]: 16 µg/mL (≈ 42.1 µM)
- MIC [2, 22]: 64 µg/mL (≈ 168 µM)
- MIC ([2]; culture S, table part marked b): 16 µg/mL (≈ 42.1 µM)
- MIC ([2]; culture S, table part marked c): 16 µg/mL (≈ 42.1 µM)
